“Also recorded” adds a separate entry of the source.
Columns and labels:
[1] = system: RelB and Bcl10 cleavage in OCI-Ly3 cell line; experiment: Activity of MALT1 inhibitor in OCI-Ly3 cell line, inhibition of RelB and Bcl10 cleavage by Western blotting; type: cell-based; settings: 24 hours, with proteasome inhibitor MG132, Western blot
Procedure: OCI-Ly3 cell lines were cultured for 24 hours in combination with proteasome inhibitor MG132 and indicated concentrations of MALTi. Protein lysates were probed for RelB, Bcl10 and actin or vinculin as loading controls.
Western blot analysis was performed using standard techniques. Membranes were probed with the following antibodies: anti-RelB, p-IκBα, Bcl-XL (Cell Signaling), Bcl10 (Abcam), and actin (Santa Cruz Biotechnology). Odyssey Imager (Li-Cor Biosciences) was used as a detection method according to the manufacturer's protocol.
To test MALT1 inhibition in the context of CLL, we investigated CLL functionality under divergent microenvironmental stimulations. […] Proliferation of CLL cells was induced either via CD40 stimulation in combination with IL-21, or by stimulation with CpG in combination with IL-2, IL-15 and IL-21 ([…]). […] Because of the central role of MALT1 in NF-κB signaling, we investigated known targets of NF-κB such as IL-6, IL-10 and TNFα. Both CD40, BCR and TLR9 stimulation induced cytokine secretion of IL-6, IL-10 and TNFα (FIG. 1C-E). […] The role of MALT1 in the BCR and TLR9 pathway has previously been described, but its role in the CD40 pathway is a new observation.

[2] = system: CLL cells; experiment: CLL cell viability, flow cytometry with DiOC6 and TO-PRO3; type: cell-based, human; settings: 24 hours, DiOC6 and TO-PRO3 staining
Procedure: (§1) FIG. 1A is a bar graph showing the results of an experiment in which CLL cells were treated with the indicated drugs and concentrations and incubated for 24 hours. For the BCR stimulation, cells were supplemented with IL-4 and αIgM. […] Bars represent the mean±SEM. FIG. 1B is a bar graph showing the results of an experiment in which CLL cells were labeled with CellTrace Violet and cultured for 5 days on 3T40 supplemented with IL-21 or on 3T3 in combination with CpG, IL-2, IL-15, and IL-21 in combination with 10 μM MALTi. Proliferation was measured using flow cytometry based on CellTrace Violet signal (n=8). […] Afterwards, culture supernatant was collected and IL-6 (n=14) (FIG. 1C), IL-10 (n=13) (FIG. 1D), and TNFα (n=14) (FIG. 1E) levels were measured using commercial ELISA kits. […] Protein lysates were probed for p-IκBα, Bcl-XL, and actin as loading control.

[3] = system: CLL cells; experiment: Proliferation of CLL cells, CellTrace Violet; type: cell-based, human; settings: 10 μM MALTi, 5 days; CD40 stimulation + IL-21 or CpG + IL-2, IL-15, IL-21
Procedure: as §1
CLL PBMCs were labeled with CellTrace Violet and either co-cultured with 3T40 fibroblasts and supplemented with IL-21 (25 ng/mL) or stimulated with CpG ODN2006 (1 μg/mL) and supplemented with IL-2, IL-15, and IL-21 (25 ng/mL). CLL cells were cultured for 5 days. […] Samples were measured on a FACS Canto II cytometer (BD Biosciences, San Jose, CA, USA) and proliferation was analyzed using FlowJo software.

[4] = system: NF-κB-mediated cytokine secretion in CLL cells; experiment: Cytokine secretion (IL-6, IL-10, TNFα) of stimulated CLL cells, ELISA; type: cell-based, human; settings: CD40, BCR and TLR9 stimulation, 24 hours
Procedure: as §1
(§2) CLL PBMCs were either co-cultured with 3T40 fibroblasts, stimulated with soluble or immobilized anti-IgM (SouthernBiotech, Birmingham, AL, USA) or stimulated with CpG ODN2006 (1 μg/mL) and incubated for 24 hours. Culture supernatant was collected and IL-6, IL-10, and TNFα levels were measured by commercial ELISA kits (Diaclone, Besancon, France). […] Samples were measured on a FACS Canto II cytometer (BD Biosciences, San Jose, CA, USA) and analyzed using FlowJo software.

[5] = system: NF-κB signaling (p-IκBα, Bcl-XL) in CLL cells; experiment: Western blot of p-IκBα and Bcl-XL in stimulated CLL cells; type: cell-based, human; settings: 10 μM MALTi, 24 hours
Procedure: as §1
Western blot analysis was performed using standard techniques. […]
as §2

[6] = system: Bcl-2 family members Bcl-XL, Mcl-1 and Bcl-2 in CLL cells; experiment: Expression of Bcl-XL, Mcl-1 and Bcl-2 in stimulated CLL cells, intracellular flow cytometry; type: cell-based, human; settings: CD40, BCR or TLR9 stimulation, 10 μM MALTi, 24 hours
Procedure: Afterwards, expression of Bcl-XL (n=13) (FIG. 2A).
CLL PBMCs were either co-cultured with 3T40 fibroblasts, stimulated with soluble or immobilized anti-IgM (SouthernBiotech, Birmingham, AL, USA) or stimulated with CpG ODN2006 (1 μg/mL) and incubated for 24 hours. Culture supernatant was collected and IL-6, IL-10, and TNFα levels were measured by commercial ELISA kits (Diaclone, Besancon, France). Intracellular flow cytometry staining was performed using Cytofix/Cytoperm according to manufacturer's protocol (BD Biosciences). Cells were stained with the following antibodies: anti-Bcl-XL-FITC, Mcl-1-PE, and Bcl-2-BV421 (BD Biosciences). Samples were measured on a FACS Canto II cytometer (BD Biosciences, San Jose, CA, USA) and analyzed using FlowJo software.

[7] = system: CLL-derived and healthy T cells; experiment: T cell stimulation with anti-CD3/CD28: activation, proliferation, degranulation, cytokine secretion; type: cell-based, human
Procedure: Afterwards, cells were measured using flow cytometry. FIG. 3A are bar graphs showing T cell activation measured based on CD25. […] FIG. 3C are bar graphs showing T cell proliferation measured based on CellTrace Violet signal. FIG. 3D are bar graphs showing T cell degranulation measured in CLL (n=13) and healthy (n=3) T cells based on CD107a. After incubation, culture supernatant was collected and IFNγ (n=12) and TNFα (n=9) levels were measured using commercial ELISA kits (FIG. 3E).
(§3) CLL or healthy donor PBMCs were labeled with CFSE or CTV and stimulated with anti-CD3 (clone 1XE) and anti-CD28 (clone 15E8) antibodies for 4 days. Culture supernatant was collected and IFNγ (ThermoFisher) and TNFα (Diaclone) levels were measured by commercial ELISA kits. The activation/proliferation panel consisted of the following antibodies: CD3-μF700 (eBioscience), CD4-PE-Cy7, CD8-PerCpCy5.5, CD25-APC (BD Bioscience). The differentiation panel consisted of the following antibodies: CD27/CCR7-PerCP-eFluor710 or (eBioscience), CD4-PE-Cy7, CD8-BV786, CD25-PE, CD45RA-BV650, and FoxP3-APC (BD Biosciences). The cytotoxicity panel consisted of the following antibodies: CD107a-FITC (eBioscience), CD4-PerCPeF710, CD8-BV786, CD25-PE, and PD1-PE-Cy7 (BD Biosciences). Samples were measured on a FACS Canto II cytometer (BD Biosciences, San Jose, CA, USA) and analyzed using FlowJo software.

[8] = system: T cell subsets in CLL and healthy donor PBMCs; experiment: T cell differentiation and subset distribution, flow cytometry; type: cell-based, human
Procedure: (§4) Afterwards, T cell subsets were measured using flow cytometry as described. […] Afterwards, T cell subsets were measured using flow cytometry based on CD27 and CD45RA. Naïve T cells were gated as CD27^+/CD45RA^+, central memory T cells were gated as CD27^+/CD45RA^−, memory T cells were gated as CD27^−/CD45RA^−, and terminally differentiated effector memory cells re-expressing CD45RA T cells were gated as CD27^−/CD45RA^+. […] Afterwards, regulatory T cells were measured using flow cytometry and gated as CD4^+/CD25^+/FoxP3^+. Bars represent the mean±SEM, *p<0.05, ***p<0.001 (paired sample t-test).
as §3, with “The cytotoxicity panel consisted of the following antibodies: CD107a-FITC (eBioscience), CD4-PerCPeF710, CD8-BV786, CD25-PE, and PD1-PE-Cy7 (BD Biosciences).” left out

[9] = system: CD4+/CD25+/FoxP3+ regulatory T cells; experiment: Regulatory T cell population in unstimulated PBMCs, flow cytometry; type: cell-based, human; settings: unstimulated CLL and healthy donor PBMCs, 4 days
Procedure: as §4
as §3, with “The cytotoxicity panel consisted of the following antibodies: CD107a-FITC (eBioscience), CD4-PerCPeF710, CD8-BV786, CD25-PE, and PD1-PE-Cy7 (BD Biosciences).” left out

[10] = system: OCI-LY3 DLBCL CDX model; experiment: In vivo efficacy in OCI-LY3 model, tumor growth inhibition; set-up: species or system NOD/SCID mice; settings: for tumor growth inhibition (TGI): oral, 12 days post treatment; for in vivo growth of OCI-LY3 DLBCL CDX model (efficacy in words): OCI-LY3 model (CARD11 mut)
[11] = system: IL-10, TNF-α, IL12p70, IL-6 in serum; experiment: Serum cytokine secretion in OCI-LY3 tumor bearing mice, Mesoscale assay; type: in vivo, NOD/SCID mice
Procedure: Tumor and Serum Samples Collection on Study Termination. Whole blood samples were collected from all groups at 6 hours post the final dose. Serum samples were isolated from all groups were collected and stored at −80° C. Tumor tissues were collected from all of groups when study was terminated, and split into 2 pieces, take weights, processed to snap frozen and stored in 2 separated tubes.
Tumor and Serum Samples Collection on Study Termination. NF-κB signaling regulates the secretion of multiple cytokines, including interleukin (IL)-6 and IL-10. Secretion of the cytokines (IL-10, TNF-α, IL12p70, and IL-6) in serum samples of OCI-LY3 animals was measured by using a Mesoscale assay (MSD). For in vivo efficacy study, serum samples were isolated from all tumor bearing mice at 6 hours post the final dose of the MALT1 inhibitor of Formula I. For in vivo Pharmacodynamic (PD) experiment, serum samples were isolated from all tumor bearing mice (tumor volume around 700 mm3) at 8 hours post treatment with the MALT1 inhibitor of Formula I (BID dosing). Serum samples were transferred to an MSD plate (V-Plex Proinflammation Panel 1 [human] kit) and incubated for 2 hours at RT followed by a 2-hour incubation with cytokine antibody solution. Plates were read on a SECTOR imager.

[12] = system: CLL cells; settings: CD40-, BCR- or TLR9-stimulated, 10 μM MALTi, BH3 mimetic for additional 24 hours
Procedure: FIGS. 2A-2C are bar graphs showing the results of experiments in which CLL cells were cultured for 24 hours on 3T40, stimulated with IL-4 and αIgM (soluble or immobilized to beads) or stimulated with CpG, and incubated for 24 hours in combination with 10 μM MALTi. […] FIGS. 2D-2I) are graphs showing the results of experiments in which, in parallel, CD40-stimulated (n=9) (FIGS. 2D-2E), BCR-stimulated (n=8) (FIGS. 2F-2G), and TLR9-stimulated (n=6) (FIGS. 2H-2I) cells were with venetoclax or S63 for an additional 24 hours. Viability was measured using flow cytometry using DiOC6 and TO-PRO3 viability staining. […]
Lymphocytes of CLL patients were co-cultured with NIH3T3 fibroblasts stably transfected with human CD40L (3T40) or negative control (3T3) as described before (Urashima et al., “CD40 Ligand Triggered Interleukin-6 Secretion in Multiple Myeloma,” Blood 85(7):1903-1912 (1995) and Schultze et al., “CD40-Activated Human B Cells: An Alternative Source of Highly Efficient Antigen Presenting Cells to Generate Autologous Antigen-Specific T Cells for Adoptive Immunotherapy,” J. Clin. Invest. 100(11):2757-2765 (1997). After 24 hours, cells were detached and incubated with or without drugs for an additional 24 hours. CLL cell viability was measured by flow cytometry using DioC6 and TO-PRO-3 viability dyes. […]

Compound: O=C(Nc1ccnc(C(F)(F)F)c1)c1cnn(-c2cccc3c(=O)[nH]ccc23)c1C(F)(F)F [MALT1 inhibitor of Formula I, 1-(1-oxo-1,2-dihydroisoquinolin-5-yl)-5-(trifluoromethyl)-N-[2-(trifluoromethyl)pyridin-4-yl]-1H-pyrazole-4-carboxamide]
- inhibition of RelB and Bcl10 cleavage [1]: confirmed activity
- direct cell death in CLL cells (viability) [2]: did not induce direct cell death
- proliferation of CLL cells [3]: reduced both types of proliferation but did not fully block the proliferation
- NF-κB-mediated cytokine secretion (IL-6, IL-10, TNFα) [4]: decreased NF-κB-mediated cytokine secretion in all conditions and was most effective in CD40-stimulated cells
- Bcl-XL expression, Western blot ([5]; BCR stimulation with soluble or immobilized anti-IgM or TLR9 stimulation via CpG): inhibition of Bcl-XL expression was also observed
- p-IκBα and Bcl-XL, Western blot ([5]; CD40-stimulated (3T40) CLL cells): a decrease in p-IκBα and the NF-κB target Bcl-XL
- expression of Bcl-XL, flow cytometry [6]: inhibited
- expression of Mcl-1 and Bcl-2, flow cytometry [6]: not significantly affected
- CD107a (LAMP-1) expression, T cell degranulation ([7]; anti-CD3/CD28, 4 days): reduced
- IFNγ and TNFα cytokine secretion ([7]; anti-CD3/CD28, 4 days, ELISA): significantly inhibited
- concentrations at which in vitro T cell activation is impaired ([7]; anti-CD3/CD28 stimulated T cells): > 1 µM
- T cell activation and proliferation (CD25, PD-1, CellTrace Violet) ([7]; soluble anti-CD3/CD28, 4 days, CD4 and CD8 T cells, CLL and healthy donors): significantly reduced
- T cell subset distribution (differentiation) ([8]; stimulated with anti-CD3/CD28, 4 days, increasing concentrations): reverted the T cell subset distribution back to the phenotype seen in unstimulated cells
- T cell subset distribution ([8]; unstimulated cells, 4 days): did not affect T cell subset distribution
- CD4+/CD25+/FoxP3+ T cells [9]: specific significant decrease
- tumor growth inhibition (TGI) ([10]; 30 mg/kg BID): 41.31%
- TGI ([10]; 30 mg/kg, BID as printed, (second line of Table 4)): 69.92%
- TGI ([10]; 30 mg/kg, BID, (first line of Table 4)): 41.31%
- tumor growth inhibition (TGI) ([10]; 100 mg/kg BID): 69.92%
- in vivo growth of OCI-LY3 DLBCL CDX model (efficacy in words) [10]: moderately inhibits in vivo growth
- IL-10, TNF-α, and IL12p70 secretion levels in serum ([11]; 6 hours post final dose): decrease IL-10, TNF-α, and IL12p70 secretion levels; also recorded: downregulate IL-10, TNF-α and IL12p70 secretion
- sensitivity of stimulated CLL cells to venetoclax and S63 with concurrent MALT1 inhibition [12]: a shift towards venetoclax and S63 sensitivity in all these conditions

Compound: CC1(C)CCC(CN2CCN(c3ccc(C(=O)NS(=O)(=O)c4ccc(NCC5CCOCC5)c([N+](=O)[O-])c4)c(Oc4cnc5[nH]ccc5c4)c3)CC2)=C(c2ccc(Cl)cc2)C1 [Venetoclax, 4-[4-[[2-(4-chlorophenyl)-4,4-dimethylcyclohexen-1-yl]methyl]piperazin-1-yl]-N-[3-nitro-4-(oxan-4-ylmethylamino)phenyl]sulfonyl-2-(1H-pyrrolo[2,3-b]pyridin-5-yloxy)benzamide, reference compound]
- tumor growth inhibition (TGI) ([10]; 40 mg/kg QD): 0.98%
- TGI ([10]; 40 mg/kg, QD): 0.98%
- in vivo growth of OCI-LY3 DLBCL CDX model (efficacy in words) [10]: did not show any efficacy
- cytokine secretion levels in serum (IL-10, TNFα, IL12p70, IL6) ([11]; monotherapy): didn't show effect

From patent US11872220B2, “Methods and compositions for treating B-cell malignancies” (Janssen Pharmaceutica NV, priority 2021, dated 2024)
